Data set [1] in a line: Bioavailability Test: plasma levels after oral 60 mg capsules of different trilostane particle size. The settings on record: for AUC at 24 h: human, plasma, po, 120 mg, 120 mg trilostane (2 x 60 mg capsules) oral, empty stomach, eight volunteers, read-out: Trilostane AUCo^24. The data set is classed as in vivo, volunteers. As for the experimental part:
60 mg capsules were prepared as described in Example 1 by wet granulation techniques using batches of trilostane comprising (i) particles having a mean equivalent sphere volume diameter of about 10 µm (at least about 95% of the particles having a particle size of less than about 50 pm), (ii) particles of mean equivalent sphere volume diameter of about 45 µm, and (iii) particles of mean equivalent sphere volume diameter greater than 100 pm.
In a three part double blind cross-over study on eight volunteers, each volunteer received a dosage of 120 mg of trilostane (2 x 60 mg capsules) on an empty stomach with 50 ml of tap water. Blood samples (8 ml) were taken pre-medication and at 0.5, 1.0, 2.0, 3.0, 4.0, 5.0, 6.0, 8.0, 10.0 and 24.0 hours and assayed for plasma levels of trilostane and trilostane metabolite. Plasma concentrations were processed by a computer programme giving maximum concentration in plasma (Cmax) and time taken to reach this maximum (Tmax) by inspection. Values for the area under the curve of concentration against time over the time span 0 to t ( [formula] ―where t is time) were then calculated using the trapezoid rule and statistical analysis was carried out using the Students paired t-test.
The following Table I sets out [formula] values (mg.ml^-1.h) for trilostane and 17-keto metabolite.

Data set [2] is described as follows: In vitro dissolution or release testing of products with different trilostane particle sizes. It counts as physicochemical. The settings on record: products containing batches of trilostane of differing particle sizes.

The text below walks through data of patent EP0108606B1, “Steroid compounds” (STERWIN AG., priority 1982, dated 1984).

Where two headings read alike, the source gives them in different places.

Take `C[C@]12CC[C@H]3[C@@H](CC[C@@]45O[C@@H]4C(O)=C(C#N)C[C@]35C)[C@@H]1CC[C@@H]2O` [Trilostane, 2a-cyano-4a,5a-epoxyandrostan-17a-ol-3-one]: the entries for the “ratio of Metabolite AUC to Trilostane AUCo^4” value in data set [1] (10 µm material), in data set [1] (45 µm material) and in data set [1] (100 µm material) were 3.1, 4.5 and 6.5, respectively. Also, the “plasma levels at 24 hours” value in data set [1] (24 hours after 120 mg oral, in most cases) is “could not be detected”. Besides, the values for the AUC at 24 h in data set [1] (particle size 10 µm), in data set [1] (particle size 45 µm) and in data set [1] (particle size 100 µm) were 1600 µg·h/mL, 600 µg·h/mL and 200 µg·h/mL, respectively. Further, the “dissolution or release properties” value in data set [2] is “could not be differentiated”.
